Test system: androgen receptor (AR)
Experiment: AR ELISA assay (androgen receptor degradation)
Assay type: cell-based
Settings: LNCaP and/or VCaP cells, 5 hours drug treatment; for AR Dmax: % degraded
Protocol: 5. AR ELISA Assay Protocol
Compounds were evaluated in this assay in LNCaP and/or VCaP cells utilizing similar protocols. The protocols used with VCaP cells are described below. The androgen receptor ELISA assay was performed using PathScan AR Sandwich ELISA (Cell Signaling Catalog #12850) according to the following assay steps:
VCaP cells were seeded at 40,000 cells/well at a volume of 100 µL/well in VCaP assay medium [Phenol red free RPMI (Gibco Cat #11835-030); 5% Charcoal Stripped (Dextran treated) FBS (Omega Scientific, Cat #FB-04); 1% penstrep (Life Technologies, Gibco Cat #: 10378-016)] in Corning 3904 plates. The cells were incubated for a minimum of 3 days. Cells were dosed with PROTACs diluted in 0.01% DMSO and the drug treatment was allowed for 5 hours.
AR ELISA (Cell Signaling) was performed as follows. 1×Cell Signaling Cell lysis buffer was made (Catalogue #9803; comes with the kit). Media from the treated wells is aspirated, and 100 μL 1×cell lysis buffer/well is added. The cells were placed on a shaker for 10 minutes at 4° C. Twenty microliters of lysate was transferred to 100 μl of Diluent in ELISA plate ([…]-0.075 μg/ml). The lysate-diluent mixture was shaken for 30 minutes at 37° C. Allow mouse AR antibody, anti-mouse antibody, TMB, and STOP solution to come to room temperature. The 1×ELISA buffer included in kit was made and loaded in the reservoir. Media from the plates was discarded, the ELISA plate tapped hard on paper towel, and washed 4×200 μl ELISA wash buffer using a plate washer.
One-hundred (100) μL/well of mouse AR detection Ab was added; the plates were covered and shaken at 37° C. for 1 hour; media was discarded from the plates, the plates were tapped on a paper towel, washed 4× with 200 μL ELISA wash buffer with a plate washer.
One-hundred (100) μL/well of anti-mouse—HRP conjugated Ab (comes with the kit) was added; the plates were covered and shaken at 37° C. for 30 minutes; the TMB reagent was allowed to come to room temperature; the media was discard from the plate, the plates were tapped on paper towel, washed 4× with 200 μL of ELISA wash buffer; the plates were tapped the plates on paper towel. One-hundred (100) μL of TMB was added and the plates shaken for 2 minutes—while watching for color development. One-hundred (100) μL Stop solution was added when light blue color developed. Plates were shaken and read at 450 nm.

| Compound | DC50 [nM] | AR Dmax |
| --- | --- | --- |
| CC1(C)[C@H](NC(=O)c2ccc(N3CCC(CN4CCN(c5ccc6c(c5)C(=O)N(c5ccc[nH]c5=O)C6=O)CC4)CC3)cc2)C(C)(C)[C@H]1Oc1ccc(C#N)c(Cl)c1 [PROTAC-44, rac-N-((1r,3r)-3-(3-chloro-4-cyanophenoxy)-2,2,4,4-tetramethylcyclobutyl)-4-(4-((4-(1,3-dioxo-2-(2-oxo-1,2-dihydropyridin-3-yl)isoindolin-5-yl)piperazin-1-yl)methyl)piperidin-1-yl)benzamide] | ≥ 100 | C (C <= 50) |
| CC1(C)[C@H](NC(=O)c2ccc(N3CCC(CN4CCN(c5ccc6c(c5)C(=O)N(c5ccc(=O)[nH]c5)C6=O)CC4)CC3)cc2)C(C)(C)[C@H]1Oc1ccc(C#N)c(Cl)c1 [PROTAC-43, N-((1r,3r)-3-(3-chloro-4-cyanophenoxy)-2,2,4,4-tetramethylcyclobutyl)-4-(4-((4-(1,3-dioxo-2-(6-oxo-1,6-dihydropyridin-3-yl)isoindolin-5-yl)piperazin-1-yl)methyl)piperidin-1-yl)benzamide] | ≥ 100 | C (C <= 50) |
| CC1(C)[C@H](NC(=O)c2ccc(N3CCC(CN4CCN(c5ccc(C(=O)NC6CCC(=O)NC6=O)nc5)CC4)CC3)nc2)C(C)(C)[C@H]1Oc1ccc(C#N)c(Cl)c1 (some centres unmarked) [PROTAC-53, 5-(4-((1-(5-(((1r,3r)-3-(3-chloro-4-cyanophenoxy)-2,2,4,4-tetramethylcyclobutyl)carbamoyl)pyridin-2-yl)piperidin-4-yl)methyl)piperazin-1-yl)-N-(2,6-dioxopiperidin-3-yl)picolinamide] | < 1 | A (A > 75) |
| CN(C(=O)c1ccc(OCCCCCN2CCN(c3ccc(C(=O)N[C@H]4C(C)(C)[C@H](Oc5ccc(C#N)c(Cl)c5)C4(C)C)cn3)CC2)cc1)C1CCC(=O)NC1=O (mixture of isomers) [PROTAC-49, rac-N-((1r,3r)-3-(3-chloro-4-cyanophenoxy)-2,2,4,4-tetramethylcyclobutyl)-6-(4-(5-(4-((2,6-dioxopiperidin-3-yl)(methyl)carbamoyl)phenoxy)pentyl)piperazin-1-yl)nicotinamide] | ≥ 100 | C (C <= 50) |
| Cc1nc2c(OCCCCCN3CCN(c4ccc(C(=O)N[C@H]5C(C)(C)[C@H](Oc6ccc(C#N)c(Cl)c6)C5(C)C)cn4)CC3)cccc2c(=O)n1C1CCC(=O)NC1=O (some centres unmarked) [PROTAC-30, N-((1r,3r)-3-(3-chloro-4-cyanophenoxy)-2,2,4,4-tetramethylcyclobutyl)-6-(4-(5-((3-(2,6-dioxopiperidin-3-yl)-2-methyl-4-oxo-3,4-dihydroquinazolin-8-yl)oxy)pentyl)piperazin-1-yl)nicotinamide] | ≥ 100 | C (C <= 50) |
| CC1(C)[C@H](NC(=O)c2ccc(N3CCC(CN4CCN(c5ccc6c(c5)C(=O)N(c5ccc(O)[nH]c5=O)C6=O)CC4)CC3)cc2)C(C)(C)[C@H]1Oc1ccc(C#N)c(Cl)c1 [PROTAC-45, N-((1r,3r)-3-(3-chloro-4-cyanophenoxy)-2,2,4,4-tetramethylcyclobutyl)-4-(4-((4-(2-(6-hydroxy-2-oxo-1,2-dihydropyridin-3-yl)-1,3-dioxoisoindolin-5-yl)piperazin-1-yl)methyl)piperidin-1-yl)benzamide] | ≥ 100 | C (C <= 50) |

Now from value to compound, other results behind:

| DC50 [nM] | Compound | AR Dmax |
| --- | --- | --- |
| ≥ 100 | CC1(C)[C@H](NC(=O)c2ccc(N3CCC(CN4CCN(c5ccc6c(c5)C(=O)N(C5CC(=O)NC5=O)C6=O)CC4)CC3)cc2)C(C)(C)[C@H]1Oc1ccc(C#N)c(Cl)c1 (some centres unmarked) [PROTAC-66, N-((1r,3r)-3-(3-chloro-4-cyanophenoxy)-2,2,4,4-tetramethylcyclobutyl)-4-(4-((4-(2-(2,5-dioxopyrrolidin-3-yl)-1,3-dioxoisoindolin-5-yl)piperazin-1-yl)methyl)piperidin-1-yl)benzamide] | C (C <= 50) |
| 10 to 100 | N#Cc1ccc(O[C@H]2CC[C@H](NC(=O)c3ccc(N4CCC(CN5CCN(c6cc(C(=O)NC7CCC(=O)NC7=O)c(C(=O)O)cc6F)CC5)CC4)nn3)CC2)cc1Cl (some centres unmarked) [PROTAC-58, 4-(4-((1-(6-(((1r,4r)-4-(3-chloro-4-cyanophenoxy)cyclohexyl)carbamoyl)pyridazin-3-yl)piperidin-4-yl)methyl)piperazin-1-yl)-2-((2,6-dioxopiperidin-3-yl)carbamoyl)-5-fluorobenzoic acid] | B (50 < B <= 75) |
| < 1 | N#Cc1ccc(O[C@H]2CC[C@H](NC(=O)c3ccc(N4CCC(CN5CCN(c6ccc(C(=O)NC7CCC(=O)NC7=O)cc6)CC5)CC4)nn3)CC2)cc1Cl (some centres unmarked) [PROTAC-59, N-((1r,4r)-4-(3-chloro-4-cyanophenoxy)cyclohexyl)-6-(4-((4-(4-((2,6-dioxopiperidin-3-yl)carbamoyl)phenyl)piperazin-1-yl)methyl)piperidin-1-yl)pyridazine-3-carboxamide] | A (A > 75) |
| ≥ 100 | CC1(C)[C@H](NC(=O)c2ccc(N3CCC(CN4CCC5(CC4)CC(=O)N(C4CCC(=O)NC4=O)C5=O)CC3)cc2)C(C)(C)[C@H]1Oc1ccc(C#N)c(Cl)c1 (mixture of isomers) [PROTAC-75, rac-N-((1r,3r)-3-(3-chloro-4-cyanophenoxy)-2,2,4,4-tetramethylcyclobutyl)-4-(4-((2-(2,6-dioxopiperidin-3-yl)-1,3-dioxo-2,8-diazaspiro[4.5]decan-8-yl)methyl)piperidin-1-yl)benzamide] | 6C (C <= 50) |
| ≥ 100 | CC1(C)[C@H](NC(=O)c2ccc(/C=C/CN3CCC4(CC3)CC(=O)N(C3CCC(=O)NC3=O)C4=O)cc2)C(C)(C)[C@H]1Oc1ccc(C#N)c(Cl)c1 (mixture of isomers) [PROTAC-77, rac-N-((1r,3r)-3-(3-chloro-4-cyanophenoxy)-2,2,4,4-tetramethylcyclobutyl)-4-((E)-3-(2-(2,6-dioxopiperidin-3-yl)-1,3-dioxo-2,8-diazaspiro[4.5]decan-8-yl)prop-1-en-1-yl)benzamide] | C (C <= 50) |
| ≥ 100 | CC1(C)[C@H](NC(=O)c2ccc(N3CCN(CCCOc4cnn(C5CCC(=O)NC5=O)c(=O)c4)CC3)nc2)C(C)(C)[C@H]1Oc1ccc(C#N)c(Cl)c1 (mixture of isomers) [PROTAC-60, rac-N-((1r,3r)-3-(3-chloro-4-cyanophenoxy)-2,2,4,4-tetramethylcyclobutyl)-6-(4-(3-((1-(2,6-dioxopiperidin-3-yl)-6-oxo-1,6-dihydropyridazin-4-yl)oxy)propyl)piperazin-1-yl)nicotinamide] | C (C <= 50) |
| < 1 | C=C1CN(C2CCC(=O)NC2=O)C(=O)c2ccc(N3CCN(CC4CCN(c5ccc(C(=O)N[C@H]6C(C)(C)[C@H](Oc7ccc(C#N)c(Cl)c7)C6(C)C)cc5)CC4)CC3)cc21 (some centres unmarked) [PROTAC-81, N-((1r,3r)-3-(3-chloro-4-cyanophenoxy)-2,2,4,4-tetramethylcyclobutyl)-4-(4-((4-(2-(2,6-dioxopiperidin-3-yl)-4-methylene-1-oxo-1,2,3,4-tetrahydroisoquinolin-6-yl)piperazin-1-yl)methyl)piperidin-1-yl)benzamide] | A (A > 75) |

Reference: US20250313547A1, “CEREBLON LIGANDS AND BIFUNCTIONAL COMPOUNDS COMPRISING THE SAME” (Arvinas Operations, Inc., priority 2017, published 2025)
